Literature values in paper PMC7533793 (Cancer, 2009).
Where two headings read alike, the source gives them in different places.

System: in-transit extremity melanoma
Conditions: for CR rate, isolated limb infusion: Sydney Melanoma Unit study
[1] = previously published experience of the authors, without ADH-1

N[C@@H](Cc1ccc(N(CCCl)CCCl)cc1)C(=O)O [melphalan, L-phenylalanine mustard]
CR rate, isolated limb infusion (n = 60, M. D. Anderson stage IIIab (AJCC stage IIIC)): 33%
CR rate, isolated limb infusion (n = 74, M. D. Anderson stage IIIa (AJCC stage IIIB)): 43%
CR rate, isolated limb infusion with LPAM [1]: 30%
PD rate, isolated limb infusion with LPAM [1]: 48%
PR rate, isolated limb infusion with LPAM [1]: 7%
